Columns and labels:
mGluR5b = biological target: T1, mGluR5b (Rattus norvegicus, UniProt P31424); experiment: whole-cell patch clamp, calcium current inhibition in SCG neurons expressing the receptor; type: cell-based
T1 construct: gene Grm5; splice variant mGluR5b

mGluR1a = biological target: T2, mGluR1a (Rattus norvegicus, UniProt P23385); experiment: as above; type: cell-based
T2 construct: gene Grm1; splice variant mGluR1a (untagged and N-terminally myc-tagged, data combined)
T2 sequence (P23385 19-1199): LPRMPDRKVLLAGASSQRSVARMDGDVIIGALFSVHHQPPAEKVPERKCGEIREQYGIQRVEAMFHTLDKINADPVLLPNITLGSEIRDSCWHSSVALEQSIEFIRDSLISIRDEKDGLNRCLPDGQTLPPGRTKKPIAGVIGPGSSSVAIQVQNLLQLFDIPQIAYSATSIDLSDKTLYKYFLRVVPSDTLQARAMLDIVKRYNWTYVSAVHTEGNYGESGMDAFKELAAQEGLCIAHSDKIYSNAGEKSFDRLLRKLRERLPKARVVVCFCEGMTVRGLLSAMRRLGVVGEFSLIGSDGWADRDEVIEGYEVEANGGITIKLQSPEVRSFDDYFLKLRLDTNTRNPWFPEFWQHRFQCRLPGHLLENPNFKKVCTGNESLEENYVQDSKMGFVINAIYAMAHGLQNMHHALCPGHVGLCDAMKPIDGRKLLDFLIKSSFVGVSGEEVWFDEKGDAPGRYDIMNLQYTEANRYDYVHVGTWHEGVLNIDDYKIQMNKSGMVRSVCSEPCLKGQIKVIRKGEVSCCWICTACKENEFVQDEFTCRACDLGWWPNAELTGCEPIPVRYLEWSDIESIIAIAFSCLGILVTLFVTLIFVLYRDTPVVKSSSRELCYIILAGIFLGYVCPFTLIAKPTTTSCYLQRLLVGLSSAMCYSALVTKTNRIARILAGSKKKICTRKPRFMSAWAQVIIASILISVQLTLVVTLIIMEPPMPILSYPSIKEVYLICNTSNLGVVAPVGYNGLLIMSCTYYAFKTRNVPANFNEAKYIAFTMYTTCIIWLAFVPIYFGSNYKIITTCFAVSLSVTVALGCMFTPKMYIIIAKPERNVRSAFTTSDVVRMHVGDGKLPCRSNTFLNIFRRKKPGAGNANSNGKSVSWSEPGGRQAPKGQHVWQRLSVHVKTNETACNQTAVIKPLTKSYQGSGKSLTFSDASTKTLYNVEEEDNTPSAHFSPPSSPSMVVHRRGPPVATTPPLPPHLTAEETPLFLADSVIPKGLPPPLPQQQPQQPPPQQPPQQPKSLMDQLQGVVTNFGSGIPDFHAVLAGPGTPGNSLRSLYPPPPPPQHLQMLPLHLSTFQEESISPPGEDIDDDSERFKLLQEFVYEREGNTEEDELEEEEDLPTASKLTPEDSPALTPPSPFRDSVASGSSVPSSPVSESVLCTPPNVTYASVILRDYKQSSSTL

T1 sequence (P31424 21-1203): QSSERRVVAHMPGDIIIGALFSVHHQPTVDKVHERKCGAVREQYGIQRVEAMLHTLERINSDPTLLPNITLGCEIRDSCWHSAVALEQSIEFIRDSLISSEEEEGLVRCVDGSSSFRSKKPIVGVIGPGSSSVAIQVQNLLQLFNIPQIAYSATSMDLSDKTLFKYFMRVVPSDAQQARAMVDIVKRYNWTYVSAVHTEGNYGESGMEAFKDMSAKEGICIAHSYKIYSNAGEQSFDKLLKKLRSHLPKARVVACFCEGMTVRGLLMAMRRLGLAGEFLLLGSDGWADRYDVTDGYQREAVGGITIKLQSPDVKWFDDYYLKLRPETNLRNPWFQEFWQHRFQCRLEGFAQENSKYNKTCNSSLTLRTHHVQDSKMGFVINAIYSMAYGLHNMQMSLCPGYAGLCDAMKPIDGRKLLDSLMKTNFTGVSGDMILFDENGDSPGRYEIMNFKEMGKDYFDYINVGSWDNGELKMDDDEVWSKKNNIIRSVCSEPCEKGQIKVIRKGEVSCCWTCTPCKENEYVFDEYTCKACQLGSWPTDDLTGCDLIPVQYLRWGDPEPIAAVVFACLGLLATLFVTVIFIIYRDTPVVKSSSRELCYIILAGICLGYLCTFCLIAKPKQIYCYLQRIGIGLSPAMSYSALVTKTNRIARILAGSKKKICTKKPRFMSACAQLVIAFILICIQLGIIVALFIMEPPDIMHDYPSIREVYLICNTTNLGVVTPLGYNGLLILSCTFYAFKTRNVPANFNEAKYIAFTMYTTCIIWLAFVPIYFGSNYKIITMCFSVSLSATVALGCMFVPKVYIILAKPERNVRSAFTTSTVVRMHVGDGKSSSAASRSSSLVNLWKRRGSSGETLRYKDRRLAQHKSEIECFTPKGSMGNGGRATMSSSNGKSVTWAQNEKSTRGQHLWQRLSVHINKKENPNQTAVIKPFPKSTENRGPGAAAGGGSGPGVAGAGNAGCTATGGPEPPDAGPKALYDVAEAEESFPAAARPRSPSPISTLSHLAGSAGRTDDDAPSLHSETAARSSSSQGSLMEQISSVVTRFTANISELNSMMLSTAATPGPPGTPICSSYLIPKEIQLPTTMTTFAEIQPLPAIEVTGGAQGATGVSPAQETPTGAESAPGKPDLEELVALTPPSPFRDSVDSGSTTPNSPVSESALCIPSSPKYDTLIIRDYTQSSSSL

EC50 (mGluR5b): 57 µM
EC50 (mGluR1a): 80 µM
Compound: NC(C(=O)O)c1cc(O)ccc1Cl (racemic) [CHPG, 2-Chloro-5-hydroxyphenylglycine]
